Activity calls are given as the source filed them. No cut-off for these calls is given here.
Tests used:
SBcl2 [1] = assay: Induction of apoptosis in human SBcl2 cells assessed as early apoptotic cells at IC50 concentration after 6 hrs by Annexin V/SYTOX Green based flow cytometric analysis (reference value: 3.77%); format: functional
WM164 [2] = assay: Induction of apoptosis in human WM164 cells assessed as viable cells at IC50 concentration after 6 hrs by Annexin V/SYTOX Green based flow cytometric analysis (reference value: 94.77%); format: functional
WM164 [3] = assay: Induction of apoptosis in human WM164 cells assessed as effect on BAD protein expression at IC50 concentration after 24 hrs by Western blot analysis; format: functional, cell-based
MUGMel2 [4] = assay: Induction of apoptosis in human MUGMel2 cells assessed as effect on BAX protein expression at IC50 concentration after 24 hrs by Western blot analysis; format: functional, cell-based
MUGMel1 [5] = assay: Induction of apoptosis in human MUGMel1 cells assessed as effect on BAX protein expression at IC50 concentration after 24 hrs by Western blot analysis; format: functional, cell-based
SBcl2 [6] = assay: Induction of apoptosis in human SBcl2 cells assessed as viable cells at IC50 concentration after 6 hrs by Annexin V/SYTOX Green based flow cytometric analysis (reference value: 80.68%); format: functional
WM164 [7] = assay: Induction of apoptosis in human WM164 cells assessed as effect on BAX mRNA expression at IC50 concentration after 6 to 24 hrs by RT-qPCR analysis; format: functional, cell-based
SBcl2 [8] = assay: Induction of apoptosis in human SBcl2 cells assessed as early apoptotic cells at IC50 concentration after 6 hrs by Annexin V/SYTOX Green based flow cytometric analysis (reference value: 4.26%); format: functional
MUGMel2 [9] = assay: Induction of apoptosis in human MUGMel2 cells assessed as up regulation of NOXA protein expression at IC50 concentration after 24 hrs by Western blot analysis; format: functional, cell-based
MUGMel1 [10] = assay: Induction of apoptosis in human MUGMel1 cells assessed as late apoptotic cells at IC50 concentration after 24 hrs by Annexin V/SYTOX Green based flow cytometric analysis (reference value: 1.18%); format: functional
WM164 [11] = assay: Induction of apoptosis in human WM164 cells assessed as early apoptotic cells at IC50 concentration after 24 hrs by Annexin V/SYTOX Green based flow cytometric analysis (reference value: 2.72%); format: functional
SBcl2 [12] = assay: Induction of apoptosis in human SBcl2 cells assessed as effect on BAX protein expression at IC50 concentration after 24 hrs by Western blot analysis; format: functional, cell-based
MUGMel1 [13] = assay: Cytotoxicity against human MUGMel1 cells assessed as reduction in cell viability after 48 hrs by EZ4U reagent based spectrophotometric method; format: functional; details: MUGMel1, 48 h
SBcl2 [14] = assay: Induction of apoptosis in human SBcl2 cells assessed as increase in caspase -3 activity at IC50 concentration after 24 hrs by Alexa Fluor 647 antibody based flow cytometric analysis; format: functional, cell-based
SBcl2 [15] = assay: Induction of apoptosis in human SBcl2 cells assessed as up regulation of PMAIP1 at IC50 concentration after 24 hrs by mRNA sequencing method relative to control; format: functional
WM793 = assay: Induction of apoptosis in human WM793 cells assessed as necrotic cells at IC50 concentration after 6 hrs by Annexin V/SYTOX Green based flow cytometric analysis (reference value: 0.32%); format: functional
MUGMel1 [16] = assay: Induction of apoptosis in human MUGMel1 cells assessed as increase in caspase -3 activity at IC50 concentration after 24 hrs by Alexa Fluor 647 antibody based flow cytometric analysis; format: functional, cell-based

With `CC(C)=CC[C@@H](OC(=O)C=C(C)C)C1=CC(=O)c2c(O)ccc(O)c2C1=O` [DIMETHYLACRYLSHIKONIN] the Activity (SBcl2 [1]) was 16.44%, the Activity (WM164 [2]) was 88.63% and the Activity (WM164 [3]) was “inactive”. For the same compound, the Activity (MUGMel2 [4]) was “inactive”, the Activity (MUGMel1 [5]) was “inactive” and the Activity (SBcl2 [6]) was 21.29%. The Activity (WM164 [7]) was “inactive”, the Activity (SBcl2 [8]) was 8.44% and the Activity (MUGMel2 [9]) was “Active”. The Activity (MUGMel1 [10]) was 10.11%, the Activity (WM164 [11]) was 12.85% and the Activity (SBcl2 [12]) was “inactive”. The IC50 (MUGMel1 [13]) was 1100 nM, the Activity (SBcl2 [14]) was “Active” and the “fold change (FC)” value (SBcl2 [15]) was 1.37. The Activity (WM793) was 0.3% and the Activity (MUGMel1 [16]) was “Active”.

From ChEMBL document CHEMBL4602659, “β,β-Dimethylacrylshikonin Induces Apoptosis in Melanoma Cell Lines by NOXA Upregulation” (J Nat Prod, 2020)
